Test results as given in ChEMBL document CHEMBL1201862, “PubChem BioAssay data set” (2004).
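Protocol summary: plate cells (96-well), add compound at 5 concentrations, incubate 48 h, interpolate endpoints linearly. GI50 = concentration required for 50% inhibition of growth.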 Activity calls are given as the source filed them. Rule as the data show it: active = GI50 up to about 1.1 µM and inactive = higher.

Columns and labels:
Assay in all cases: NCI anticancer screen, dose series, 48 h
[1] = test system: SNB-19
[2] = test system: RXF 393
[3] = test system: ACHN
[4] = test system: K562
[5] = test system: SK-MEL-5
[6] = test system: SNB-75
[7] = test system: OVCAR-4
[8] = test system: OVCAR-5
[9] = test system: A498
[10] = test system: DU-145
[11] = test system: EKVX
[12] = test system: HCC 2998
[13] = test system: HOP-62
[14] = test system: NCI-H460
[15] = test system: UACC-62
[16] = test system: KM12
[17] = test system: HL-60
[18] = test system: SW-620
[19] = test system: MDA-MB-231
[20] = test system: Malme-3M
[21] = test system: IGROV-1
[22] = test system: SF-539
[23] = test system: M14
[24] = test system: T47D
[25] = test system: NCI-H226
[26] = test system: Hs-578T
[27] = test system: SK-OV-3
[28] = test system: MCF7
[29] = test system: 786-0
[30] = test system: OVCAR-3
[31] = test system: LOX IMVI
[32] = test system: NCI-H522
[33] = test system: TK-10
[34] = test system: NCI/ADR-RES
[35] = test system: A549
[36] = test system: COLO 205
[37] = test system: HCT-15
[38] = test system: SK-MEL-28
[39] = test system: CAKI-1
[40] = test system: MOLT-4
[41] = test system: SR
[42] = test system: RPMI-8226
[43] = test system: MDA-MB-435
[44] = test system: U-251
[45] = test system: SK-MEL-2
[46] = test system: UACC-257
[47] = test system: SF-295
[48] = test system: HOP-92
[49] = test system: NCI-H23
[50] = test system: BT-549
[51] = test system: SN12C
[52] = test system: UO-31
[53] = test system: CCRF-CEM
[54] = test system: HCT-116
[55] = test system: HT-29
[56] = test system: SF-268

S=C(Nc1ccccc1)N(Cc1ccccc1)c1ccccc1 was tested, and the GI50 [1] was 80.2 µM (inactive), the GI50 [2] was 22.6 µM (inactive) and the GI50 [3] was 35 µM (inactive). For the same compound, the GI50 [4] was 29.7 µM (inactive), the GI50 [5] was 13.8 µM (inactive) and the GI50 [6] was 22.5 µM (inactive). The GI50 [7] was 23.7 µM (inactive), the GI50 [8] was > 100 µM (inactive) and the GI50 [9] was 14.6 µM (inactive). The GI50 [10] was 6.75 µM (inactive), the GI50 [11] was 17.5 µM (inactive) and the GI50 [12] was > 100 µM (inactive). The GI50 [13] was 49.3 µM (inactive), the GI50 [14] was 28.6 µM (inactive) and the GI50 [15] was 21.6 µM (inactive). For the same compound, the GI50 [16] was 21.2 µM (inactive), the GI50 [17] was 27.8 µM (inactive) and the GI50 [18] was 13.7 µM (inactive). The GI50 [19] was 45.6 µM (inactive), the GI50 [20] was 11.2 µM (inactive) and the GI50 [21] was 44.4 µM (inactive). The GI50 [22] was 17.7 µM (inactive), the GI50 [23] was 40.1 µM (inactive) and the GI50 [24] was 56 µM (inactive). The GI50 [25] was 35.7 µM (inactive), the GI50 [26] was 20 µM (inactive) and the GI50 [27] was > 100 µM (inactive). The GI50 [28] was 33.7 µM (inactive), the GI50 [29] was 74.3 µM (inactive) and the GI50 [30] was 30.2 µM (inactive). The GI50 [31] was 33 µM (inactive), the GI50 [32] was 21 µM (inactive) and the GI50 [33] was 29.7 µM (inactive). For the same compound, the GI50 [34] was > 100 µM (inactive), the GI50 [35] was 29.8 µM (inactive) and the GI50 [36] was 23.3 µM (inactive). For the same compound, the GI50 [37] was 40.4 µM, the GI50 [38] was 17.4 µM (inactive) and the GI50 [39] was 24.2 µM (inactive). The GI50 [40] was 25.5 µM (inactive), the GI50 [41] was 20.5 µM (inactive) and the GI50 [42] was 34.9 µM (inactive). For the same compound, the GI50 [43] was 20.3 µM (inactive), the GI50 [44] was 42.6 µM (inactive) and the GI50 [45] was 17.3 µM (inactive). For the same compound, the GI50 [46] was 22.4 µM (inactive), the GI50 [47] was 34.3 µM (inactive) and the GI50 [48] was 29.9 µM (inactive). The GI50 [49] was > 100 µM (inactive), the GI50 [50] was 0.34 µM (active) and the GI50 [51] was 44.1 µM (inactive). For the same compound, the GI50 [52] was 29.3 µM (inactive), the GI50 [53] was 28.4 µM (inactive) and the GI50 [54] was 40.1 µM (inactive). For the same compound, the GI50 [55] was 22.5 µM (inactive) and the GI50 [56] was 34.8 µM (inactive).
